The subject of test [1] is neural stem and progenitor cells in the dentate gyrus. Briefly: Neural stem and progenitor cell proliferation: BrdU labeling in dentate gyrus 24 hr after single AIT-082 dose. The test is classed as in vivo. The conditions noted are these: adult mice, single intraperitoneal dose 0.1-10 mg/kg, perfused at 24 hr; normalized to saline control, two experiments combined (FIG. 2). As to the method: In two separate experiments, AIT-082 was administered intraperitoneally to adult mice (5-7 per group) at 0.01-100 mg/kg. Saline was given as a negative control. Starting two hours after AIT-082 administration, animals received four intraperitoneal injections of bromodeoxyuridine (BrdU; 50 mg/kg each) at 3 hr intervals. BrdU is a thymidine analogue that is incorporated into DNA during synthesis and thus labels newly formed cells. Animals were perfused at 24 hr after the AIT-082 administration. This treatment regimen is outlined in FIG. 1.
Animals were perfused transcardially with 50 mL ice-cold phosphate buffered saline (PBS) and then 100 mL of 4% paraformaldehyde in PBS. Brains were removed, post-fixed in 4% paraformaldehyde for 24 hr at 4° C., and then transferred to 30% sucrose at 4° C. for a minimum of 3 days before sectioning. Coronal sections (40 μm) were prepared using a freezing microtome and stored in cryoprotectant at −20° C. before immunostaining for BrdU.
Every sixth section through the rostral-caudal extent of the hippocampus was immunostained for BrdU with mouse anti-BrdU paired with a biotinylated goat anti-mouse IgG. Avidin-biotin-horseradish peroxidase (HRP) complex was applied to sections and immunoreactivity visualized by reacting diaminobenzidine with the HRP. Stereological techniques were used to estimate the total number of BrdU-positive cells in the dentate gyrus.
(Dividing cells build labelled thymidine or BrdU into new DNA.)

Test [2] shares this test system. Kind of test: Neural stem and progenitor cell differentiation: BrdU/NeuN/S100β colocalization in dentate gyrus 42 days after single AIT-082 dose. The test is classed as in vivo. The settings on record: adult mice. The protocol: AIT-082 was administered intraperitoneally to adult mice (5-7 per group) at a dose of 1 -100 mg/kg. Saline was given as a negative control. Starting two hours after AIT-082 administration, animals received four intraperitoneal injections of bromodeoxyuridine (BrdU; 50 mg/kg each) at 3 hr intervals. Animals were perfused at 42 days after the AIT-082 administration. During these 42 days newly born neural stem cells have enough time to differentiate into neurons, astrocytes and other brain cells. This treatment regimen is outlined in FIG. 3.
Animals were perfused, brains treated and sections prepared as described for Example 1.
Every sixth section through the rostral-caudal extent of the hippocampus was immunostained with rat anti-BrdU paired with a Alexa 568 goat anti-rat IgG (red), mouse anti-NeuN (a neuronal marker) paired with Alexa 488 goat anti-mouse IgG (green), and rabbit anti-S100β (an astrocytes marker) paired with Alexa 647 goat anti-rabbit IgG (blue). Stereological techniques were used to estimate the total number of BrdU-positive nuclei in the dentate gyrus and the number of BrdU-positive cells that were also positive for NeuN (i.e indicating newly formed neurons) or S100β (indicating newly formed astrocytes). Cells that were BrdU-positive and not positive for either NeuN or S100β were labeled “other”. […]

Regarding `O=C(CCn1cnc2c(=O)[nH]cnc21)Nc1ccc(C(=O)O)cc1` [AIT-082, N-4-[[3-(6-oxo-1,6-dihydropurin-9-yl)-1-oxopropyl]amino] benzoic acid], in test [1], the “total number of BrdU-positive cells in dentate gyrus” value was “statistically significant increase”. For the same compound, in test [2] (single intraperitoneal dose 1 or 10 mg/kg, perfused at 42 days (FIG. 5A)), the “number of BrdU-positive cells in dentate gyrus” value was “increase”. Also, the “number of new neurons formed in the dentate gyrus (BrdU- and NeuN-positive cells)” value in test [2] (single intraperitoneal dose, perfused at 42 days (FIG. 5B)) is listed as “significant increase”.

For the origin of these results see patent publication US20020091133A1, “Use of 9-substituted purine analogues and other molecules to stimulate neurogenesis” (Eve M. Taylor, priority 2000, published 2002).
